Earlier results on 1 molecule are cited in patent US20030216337A1, “Composition and imaging methods for pharmacokinetic and pharmacodynamic evaluation of therapeutic delivery system” (priority 2002, published 2003).

The structures appear in SMILES notation.

As for `O=c1[nH]c(=O)n([C@H]2C[C@H](O)[C@@H](CO)O2)cc1I` [IUdR, 5-Iodo-2′-deoxyuridine], the half-life result (in humans, unincorporated IUdR / resulting compound) is listed as “less than minutes”. For the same molecule, the “catabolism of unincorporated IUdR” value (unincorporated into DNA) was “rapidly catabolized to iodouracil and/or dehalogenated”.
